# Assay: Serum 25(OH)D3 levels (radioimmunoassay)
# Assay type: in vivo, Male albino Fisher-344 rats
# Details: for Serum Levels 25(OH)D3: mean ± S.E.M., n=6
# From the text: Male albino Fisher-344 rats, initially weighing ~90-100 g, were used in these studies. On arrival, the animals were quarantined for 1 wk and then randomly divided into the following six test groups: groups 1 and 2, standard vitamin D-sufficient diet; groups 3 and 4, standard diet supplemented with RO24-5531 (2.50 nmol/kg of feed); and groups 5 and 6, standard vitamin D-sufficient diet. […] Next, the rats in groups 2,4 and 6 were given subcutaneous injections of azoxymethane (AOM, Sigma Chemical Co., St. Louis, Mo.), 15 mg/kg body wt once a wk for 2 wks, while the rats in groups 1,3 and 5 received AOM-vehicle (saline).
# Groups 1 and 2 were then maintained on the standard diet for an additional […]. Groups 3 and 4 were maintained on the RO24-5531 supplemented diets for the initial five wks and then switched to the standard diet without RO24-5531 for an additional 29 wks (initiation arm), whereas groups 5 and 6 were maintained on the standard diet without supplemental RO24-5531 for the initial five wks and then switched to the RO24-5531 supplemented diet for an additional 29 wks (post-initiation arm).
# All rats were sacrificed in the non-fasting state after 34 wks on these protocols between 9 a.m. and 11 a.m. and sera obtained for measurement of calcium, phosphate, 25(OH)D3 and 1α,25(OH)2 D3 levels. The rats' colons were removed, opened, washed with normal saline and examined macroscopically for the presence of tumors. Resected tumors were weighed, and were fixed in 10% buffered formalin for microscopic examination. After formalin fixation, tissue specimens were paraffin-embedded, sectioned, and stained with hematoxylin and eosin as described previously (Sitrin et al., 1991), for light microscopic examination. All specimens were evaluated by a pathologist who was unaware of the dietary or AOM treatment history. Macroscopic and microscopic lesions were classified as either benign (adenoma) or malignant (adenocarcinoma).
# Serum calcium and phosphorus were measured by standard colorimetric methods (Kessler and Wolfman, Clin. Chem. 10:686-703, 1964). Serum 25(OH)D3 levels were measured by radioimmunoassay, using a kit and procedure supplied by Incstar (Stillwater, Minn.). Serum 1α,25(OH)2 D3 levels were assayed by a non-equilibrium competitive protein-binding assay based on a calf thymus receptor, using a kit and procedure supplied by Incstar, as previously described (Sitrin et al., 1991).
# Results are expressed as means ±SE of n determinations. Data were analyzed by Fisher's exact test (two-tailed) or analysis of variance (ANOVA) as appropriate (Snedecor and Cochran, Statistical Methods, 1980). Values of p <0.05 were considered statistically significant.
smiles,measurement,setting,value
"C=C1/C(=C\C=C2/CCC[C@]3(C)C([C@H](C)CC#CC(O)(C(F)(F)F)C(F)(F)F)=CC[C@@H]23)C[C@@H](O)C[C@@H]1O [RO24-5531, 26,26,26,27,27,27-hexafluoro-1α,25-dihydroxy-16-ene-23-yne-cholecalciferol]",Serum Levels 25(OH)D3,"group 3: RO24-5531/SD, no AOM",31 ± 2 ng/mL
same,Serum Levels 25(OH)D3,"group 4: RO24-5531/SD (initiation arm), AOM",29 ± 2 ng/mL
same,Serum Levels 25(OH)D3,"group 5: SD/RO24-5531, no AOM",33 ± 4 ng/mL
same,Serum Levels 25(OH)D3,"group 6: SD/RO24-5531 (post-initiation arm), AOM",36 ± 5 ng/mL
same,effect on serum levels of 25(OH)D3,groups 4 and 6,"significantly altered the serum levels of calcium, phosphorus or 25(OH)D3"

# — patent US6040300A, “Method of preventing colon cancer with vitamin D3 analogues” (Arch Development Corporation, priority 1995, dated 2000)
